For one compound, binding results are on record in PMC6409966 (2019).

This assay deals with thiolated MG binding aptamer (RNA, aptamer) GGAUCCCGACUGGCGAGAGCCAGGUAACGAAUGGAUCC
Put plainly: cyclic voltammetry / DPV of captured MG on aptamer electrode; EIS. The following applies: Na+ / K+ (Na2HPO4/KH2PO4 buffer); phosphate buffer pH 7.4, room temperature, 2 h; 1.0 and 10 μM MG; immobilised aptamer.

In the case of `CN(C)c1ccc(C(=C2C=CC(=[N+](C)C)C=C2)c2ccccc2)cc1`, the binding result is reported as “yes”.
